The source of these data is PMC12049818, “Identification of NUV-244 as a PNPLA3 I148M degrading small molecule” (iScience, 2025).

Test [1] has as its target T1, PNPLA3 I148M (Homo sapiens, UniProt Q9NST1, I148M).
T1 sequence (Q9NST1 1-481 I148M): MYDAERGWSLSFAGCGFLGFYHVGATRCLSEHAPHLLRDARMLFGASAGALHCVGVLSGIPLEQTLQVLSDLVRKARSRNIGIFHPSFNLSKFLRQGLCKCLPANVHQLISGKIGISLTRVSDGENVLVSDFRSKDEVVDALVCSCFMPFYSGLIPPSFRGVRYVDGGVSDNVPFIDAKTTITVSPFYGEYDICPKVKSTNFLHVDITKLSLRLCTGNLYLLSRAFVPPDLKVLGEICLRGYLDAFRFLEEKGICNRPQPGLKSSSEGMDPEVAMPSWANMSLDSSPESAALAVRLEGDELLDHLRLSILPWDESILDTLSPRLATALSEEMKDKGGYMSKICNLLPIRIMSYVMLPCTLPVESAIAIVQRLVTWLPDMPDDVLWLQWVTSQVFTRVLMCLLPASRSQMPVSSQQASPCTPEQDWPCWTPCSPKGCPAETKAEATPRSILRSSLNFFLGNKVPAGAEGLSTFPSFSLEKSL
Kind of test: Huh7 untagged PNPLA3 I148M immunofluorescence on lipid droplets. The format is cell-based. Details: host or cells: Huh7. Conditions: anti-PNPLA3 IF; representative curve, Figure 3E. How it is done:
Even though C-terminal tagging is reported not to interfere with PNPLA3 localization,[20] we established an assay to exclude the possibility that C-terminal tagging of PNPLA3 with tagRFP could alter PNPLA3 response to NUV-244 on lipid droplets. For this we generated Huh7 cell lines that express untagged variants of PNPLA3 I148M or PNPLA3 WT and visualized PNPLA3 on lipid droplets by immunofluorescence (Figures 3C, 3D, and S3A).
Cells were fixed with 4% paraformaldehyde for 15 minutes at room temperature. Cells were blocked with 0.2 M glycine, 0.1 mg/mL saponin, and 30 mg/mL bovine serum albumin (BSA) (all Sigma Aldrich) in PBS for 1 hour. Cells were washed 1x with washing buffer (0,1 mg/ml saponin + 1 mg/ml Bovine serum albumin) using a Blue Washer (Blue Cat Bio). Mouse anti-human ADPN (PNPLA3, C-8, #sc-390252, Santa Cruz) and rabbit anti-human PNPLA2 (Sigma Aldrich, #HPA055173-25UL) primary antibodies and appropriate secondary antibodies conjugated with Alexa-Fluor 647 (Jackson ImmunoResearch) were used. […]
Images were acquired by an Opera Phenix confocal spinning disc microscope system (Revvity, Waltham, MA, USA) with a 20x or 40x water objective at 405 nm (Hoechst), 488 nm (BODIPY) and 647 nm. Quantification was carried out with the Harmony (Revvity, Waltham, MA, USA) or MetaXpress software (Molecular Devices). […]

Test [2] has as its target T2, PNPLA3-tagRFP (Homo sapiens, UniProt Q9NST1).
T2 construct: host or cells: Huh7
T2 sequence (Q9NST1 1-481): T1 sequence (Q9NST1 1-481 I148M) with M148I
Kind of test: Huh7 PNPLA3-tagRFP (WT) reduction on lipid droplets. The format is cell-based. Conditions: representative dose-response curve, Figure 3B. The protocol: To confirm activity, NUV-244 was resynthesized. […] Next, to evaluate the specificity against PNPLA3 WT, Huh7 cells expressing PNPLA3-tagRFP were generated (Figures 3A and S3A). Like the mutant, PNPLA3-tagRFP localizes to lipid droplets in Huh7 cells and NUV-244 dose-dependently leads to a decrease of PNPLA3-tagRFP with a similar potency as for the mutant (Figure 3B).
For dose-response cells were seeded at 4000 c/30 μl per well in 384 well plates (Revvity, Waltham, MA, USA, PhenoPlate 384-well microplate, #6057308) and stored in a 37°C incubator with 5% CO2 and 95% humidity overnight. Compounds, serially diluted, and DMSO controls were added, and cells were incubated for another 24h. […]
Images were analyzed using Harmony (Revvity) and MetaXpress software (Molecular Devices, USA) to quantify lipid droplet morphology and PNPLA3 I148M-tagRFP intensity.
Assay plates were evaluated based on Z’ scores (>0.6) and signal-to-background ratio (>12) using Genedata Screener® for HTS and Condoseo modules (Genedata, Switzerland). […] Automated image analysis routines were set up to quantify the number, morphology and intensity of nuclei, lipid droplets and the intensity of PNPLA3 I148M-tagRFP on lipid droplets. […]

Changes are numbered by the printed parent chain.

As usually defined, the EC50 is the concentration at which the effect is half-maximal. A lower EC50 goes with an effect from little substance. For `Cc1cccc(Cc2nc(C)c(C(=O)Nc3cc(O)ccc3Cl)s2)c1` [NUV-244], the EC50 was 153 nM in test [1] and 213 nM in test [2].
